Source: ChEMBL document CHEMBL1121635 (J Med Chem, 1980)

Key:
[1] = biological target: T1, Adrenergic receptor alpha-1 (Rattus norvegicus, UniProt P15823+P23944+P43140)
T1 sequence (P15823 whole entry): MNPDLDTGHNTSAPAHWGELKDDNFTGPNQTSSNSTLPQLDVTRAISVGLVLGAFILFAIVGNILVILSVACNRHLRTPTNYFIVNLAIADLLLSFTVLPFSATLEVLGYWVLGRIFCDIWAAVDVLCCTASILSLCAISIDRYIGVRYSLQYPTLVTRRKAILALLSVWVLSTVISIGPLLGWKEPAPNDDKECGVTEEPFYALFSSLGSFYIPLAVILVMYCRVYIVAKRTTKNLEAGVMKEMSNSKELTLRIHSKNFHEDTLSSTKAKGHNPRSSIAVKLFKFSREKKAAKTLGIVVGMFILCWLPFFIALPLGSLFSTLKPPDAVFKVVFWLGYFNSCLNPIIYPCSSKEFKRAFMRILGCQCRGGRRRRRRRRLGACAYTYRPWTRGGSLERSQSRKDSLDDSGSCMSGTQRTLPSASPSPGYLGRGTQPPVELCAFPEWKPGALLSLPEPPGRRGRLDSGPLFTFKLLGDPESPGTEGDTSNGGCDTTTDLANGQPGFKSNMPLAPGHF
T1 sequence (P23944 whole entry): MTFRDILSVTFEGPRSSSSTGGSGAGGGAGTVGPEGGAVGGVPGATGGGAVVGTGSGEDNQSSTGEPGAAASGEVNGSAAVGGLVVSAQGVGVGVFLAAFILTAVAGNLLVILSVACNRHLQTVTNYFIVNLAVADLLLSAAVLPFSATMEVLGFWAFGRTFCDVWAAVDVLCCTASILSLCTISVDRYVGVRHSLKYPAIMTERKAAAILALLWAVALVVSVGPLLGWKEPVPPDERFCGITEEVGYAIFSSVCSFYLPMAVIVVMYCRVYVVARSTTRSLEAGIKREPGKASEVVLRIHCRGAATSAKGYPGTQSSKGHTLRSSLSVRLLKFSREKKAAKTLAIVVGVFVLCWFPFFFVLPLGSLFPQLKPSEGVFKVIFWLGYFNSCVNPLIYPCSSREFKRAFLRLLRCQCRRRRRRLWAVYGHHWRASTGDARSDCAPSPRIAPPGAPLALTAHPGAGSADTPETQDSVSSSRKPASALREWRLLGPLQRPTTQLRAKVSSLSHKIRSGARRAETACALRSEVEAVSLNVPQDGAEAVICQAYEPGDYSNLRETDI
T1 sequence (P43140 whole entry): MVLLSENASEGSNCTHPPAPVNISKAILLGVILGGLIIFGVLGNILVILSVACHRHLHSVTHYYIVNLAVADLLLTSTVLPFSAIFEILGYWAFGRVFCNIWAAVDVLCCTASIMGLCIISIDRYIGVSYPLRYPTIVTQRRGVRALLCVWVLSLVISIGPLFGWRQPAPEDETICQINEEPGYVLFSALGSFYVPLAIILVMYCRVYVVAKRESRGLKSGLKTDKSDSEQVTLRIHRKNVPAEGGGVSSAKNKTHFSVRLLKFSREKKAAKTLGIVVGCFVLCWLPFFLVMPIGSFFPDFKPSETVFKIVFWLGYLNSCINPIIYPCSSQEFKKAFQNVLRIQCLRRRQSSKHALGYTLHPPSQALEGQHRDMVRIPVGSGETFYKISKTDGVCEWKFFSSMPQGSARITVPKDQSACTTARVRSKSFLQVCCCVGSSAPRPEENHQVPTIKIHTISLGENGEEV
Description: Concentration of compound for 50% displacement of [3H]WB-4101 from Alpha-1 adrenergic receptor of rat brain

[2] = biological target: Muscarinic acetylcholine receptor
Description: Concentration of compound for 50% displacement of [3H]QNB from Muscarinic acetylcholine receptor in rat brain

Rattus norvegicus [3] = organism: Rattus norvegicus
Description: (§1) Concentration of compound to inhibit 50% of [3H]-5-HT neurotransmitter uptake in rat brain

Rattus norvegicus [4] = organism: Rattus norvegicus; remark: listed apart in the source
Description: (§2) Concentration of compound to inhibit 50% of [3H]norepinephrine neurotransmitter uptake in rat brain

Dopamine receptor = experiment: Concentration of compound for 50% displacement of [3H]spiperone from Dopamine receptor in rat brain; type: tissue-based
Rattus norvegicus [5] = organism: Rattus norvegicus; experiment: cells; conditions: Brain, 3 h
Description: as §1

Rattus norvegicus [6] = organism: Rattus norvegicus; experiment: cells; conditions: Brain, 3 h; remark: listed apart in the source
Description: as §2

| Compound | IC50 [1] [nM] | IC50 [2] [nM] | IC50 (Rattus norvegicus [3]) [nM] | IC50 (Rattus norvegicus [4]) [nM] | IC50 (Dopamine receptor) [nM] | IC50 (Rattus norvegicus [5]) [nM] | IC50 (Rattus norvegicus [6]) [nM] |
| --- | --- | --- | --- | --- | --- | --- | --- |
| CN1CCC2c3cccc4c3N(CC2C1)c1ccccc1CC4 (trans isomer) | 1760 | 449 | 14200 | 1250 |  |  |  |
| CN(C)CCCN1c2ccccc2CCc2ccccc21 [IMIPRAMINE] |  | 269 |  |  | 645 | 384 | 169 |
| CN1CCC2c3cccc4c3N(CC2C1)c1ccccc1CC4 (stereo in doubt) | 445 | 2240 |  | 3540 |  | 19600 |  |
